In patent US10688093B2, “Methods, compositions, and uses of novel Fyn kinase inhibitors” (priority 2015, dated 2020):

Biological target: full-length recombinant human FYN A (Homo sapiens (Human), UniProt P06241)
Assay: ADP-Glo Kinase Assay of FYN kinase inhibition
Assay type: biochemical
Conditions: primary screen, initial compounds
How it was run: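 GST-tagged full-length FYN A (baculovirus, Sf9) at 3 pg preincubated 30 min RT with compound (10-point 3-fold series from 10 μM) in Tris pH 7.5/MgCl2 buffer. 12-mer tyrosine peptide plus 12.5 pmol ATP added, 90 min RT; ADP measured by ADP-Glo luminescence, IC50 from dose-response.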

Sequence of full-length recombinant human FYN A (P06241 whole entry): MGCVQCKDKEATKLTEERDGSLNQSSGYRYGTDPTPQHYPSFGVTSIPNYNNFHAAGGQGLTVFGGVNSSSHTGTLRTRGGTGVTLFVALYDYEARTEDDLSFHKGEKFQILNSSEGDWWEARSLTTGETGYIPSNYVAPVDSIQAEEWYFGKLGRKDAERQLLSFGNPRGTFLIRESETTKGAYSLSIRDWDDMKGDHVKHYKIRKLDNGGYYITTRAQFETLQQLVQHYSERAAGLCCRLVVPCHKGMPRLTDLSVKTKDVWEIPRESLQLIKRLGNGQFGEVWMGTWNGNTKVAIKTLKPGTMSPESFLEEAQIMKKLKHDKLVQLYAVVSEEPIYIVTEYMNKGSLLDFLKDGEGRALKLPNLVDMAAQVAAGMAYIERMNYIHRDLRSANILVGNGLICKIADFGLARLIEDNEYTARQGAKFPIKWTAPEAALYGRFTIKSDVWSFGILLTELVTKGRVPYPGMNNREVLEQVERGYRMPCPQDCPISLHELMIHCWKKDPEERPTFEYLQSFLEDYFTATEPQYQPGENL

IC50 | Compound
2020 nM | CN(C)CCNC(=O)c1cccc(-c2cnc3ccc(-c4ccc5c(c4)OCO5)nn23)c1 [Compound 455, 3-[6-(1,3-benzodioxol-5-yl)imidazo[1,2-b]pyridazin-3-yl]-N-(2-dimethylamino-ethyl)benzamide]
4150 nM | CN(C)CCNC(=O)c1cccc(-c2cnc3ccc(-c4cccc(C(N)=O)c4)nn23)c1 [Compound 456, 3-[3-[3-(2-dimethylamino-ethylcarbamoyl)phenyl]imidazo [1,2-b]pyridazin-6-yl]benzamide]
352 nM | O=C(NCCO)c1cccc(-c2ccc3ncc(-c4cccc(O)c4)n3n2)c1 [Compound 457, N-(2-hydroxyethyl)-3-[3-(3-hydroxyphenyl)imidazo[1,2-b]pyridazin-6-yl]benzamide]
1810 nM | COc1cc(-c2cnc3ccc(-c4cc(OC)c(OC)c(OC)c4)nn23)ccc1O [Compound 458, 2-methoxy-4-[6-(3,4,5-trimethoxyphenyl)imidazo[1,2-b]pyridazin-3-yl]phenol]
7330 nM | OCc1cccc(-c2ccc3ncc(-c4ccoc4)n3n2)c1 [Compound 459, [3-[3-(3-furyl)imidazo[1,2-b]pyridazin-6-yl]phenyl] methanol]
711 nM | NC(=O)c1ccc(-c2cnc3ccc(Cc4ccccc4)nn23)cc1 [Compound 460, 4-(6-benzylimidazo [1,2-b]pyridazin-3-yl)benzamide]
983 nM | CC(=O)Nc1ccc(-c2ccc3ncc(-c4cccc(C(=O)NCCN(C)C)c4)n3n2)cc1 [Compound 461, 3-[6-(4-acetamidophenyl)imidazo[1,2-b]pyridazin-3-yl]-N-(2-dimethylamino-ethyl)benzamide]

More lines, now with the values behind:

Compound | IC50
CNC(=O)c1cccc(-c2ccc3ncc(-c4cccc(NC(C)=O)c4)n3n2)c1 [Compound 445, 3-[3-(3-acetamido-phenyl)imidazo [1,2-b]pyridazin-6-yl]-N-methyl-benzamide] | 1330 nM
CNc1cncc(-c2ccc3[nH]ccc3c2)n1 [Compound 445_0204, 6-(1H-indol-5-yl)-N-methyl-pyrazin-2-amine] | 14900 nM
OCc1cccc(-c2ccc3ncc(-c4ccccc4)n3n2)c1 [Compound 446, [3-(3-phenylimidazo [1,2-b]pyridazin-6-yl)phenyl] methanol] | 1930 nM
Cn1cc(-c2ccc3ncc(-c4ccncc4)n3n2)cn1 [Compound 447, 6-(1-methylpyrazol-4-yl)-3-(4-pyridyl)imidazo [1,2-b]pyridazine] | 30000 nM
CN(C)CCNC(=O)c1cccc(-c2ccc3ncc(-c4cccc(OC(F)(F)F)c4)n3n2)c1 [Compound 448, N-(2-dimethylamino-ethyl)-3-[3-[3-(trifluoromethoxy)phenyl]imidazo [1,2-b]pyridazin-6-yl]benzamide] | 3930 nM
OCc1ccc(-c2ccc3ncc(-c4ccc(CO)cc4)n3n2)cc1 [Compound 449, [4-[3-[4-(hydroxymethyl)phenyl]imidazo [1,2-b]pyridazin-6-yl]phenyl] methanol] | 1040 nM
COc1cc(-c2cnc3ccc(-c4ccc5c(c4)OCO5)nn23)ccc1O [Compound 450, 4-[6-(1,3-benzodioxol-5-yl)imidazo[1,2-b]pyridazin-3-yl]-2-methoxy-phenol] | 200 nM
CC(=O)c1cccc(-c2cnc3ccc(-c4cccs4)nn23)c1 [Compound 451, 1-[3-[6-(2-thienyl)imidazo [1,2-b]pyridazin-3-yl]phenyl] ethanone] | 416 nM
COc1cncc(-c2ccc3ncc(-c4cccs4)n3n2)c1 [Compound 452, 6-(5-methoxy-3-pyridyl)-3-(2-thienyl)imidazo [1,2-b]pyridazine] | 2860 nM
c1csc(-c2ccc3ncc(-c4cccs4)n3n2)c1 [Compound 453, 3,6-bis(2-thienyl)imidazo [1,2-b]pyridazine] | 4890 nM
CN(C)CCNC(=O)c1cccc(-c2cnc3ccc(-c4cnn(C)c4)nn23)c1 [Compound 454, N-(2-dimethyl-aminoethyl)-3-[6-(1-methyl-pyrazol-4-yl)imidazo[1,2-b]pyridazin-3-yl]benzamide] | 1760 nM
